Data on 15 molecules can be found in US7452680B2, “MCT1 transporters expressed in blood brain barrier cells” (XenoPort, Inc., priority 2004, dated 2008).

Data set [1] has as its target T1, MCT1 (Homo sapiens, UniProt P53985).
T1 sequence (P53985 1-500): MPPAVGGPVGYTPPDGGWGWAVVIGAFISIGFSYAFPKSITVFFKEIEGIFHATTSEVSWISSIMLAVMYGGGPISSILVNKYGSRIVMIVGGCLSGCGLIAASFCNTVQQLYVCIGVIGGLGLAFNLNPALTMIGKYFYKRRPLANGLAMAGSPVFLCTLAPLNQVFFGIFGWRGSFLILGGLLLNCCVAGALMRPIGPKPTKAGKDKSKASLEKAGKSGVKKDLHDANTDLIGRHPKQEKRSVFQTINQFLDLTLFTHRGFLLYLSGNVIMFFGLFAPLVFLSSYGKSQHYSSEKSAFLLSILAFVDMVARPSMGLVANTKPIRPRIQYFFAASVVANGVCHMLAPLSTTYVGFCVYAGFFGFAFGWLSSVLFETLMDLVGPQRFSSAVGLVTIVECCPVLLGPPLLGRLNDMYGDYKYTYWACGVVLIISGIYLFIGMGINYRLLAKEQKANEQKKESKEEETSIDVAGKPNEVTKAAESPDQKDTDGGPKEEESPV
T1 sequence (P35613 140-385 partner limits assumed): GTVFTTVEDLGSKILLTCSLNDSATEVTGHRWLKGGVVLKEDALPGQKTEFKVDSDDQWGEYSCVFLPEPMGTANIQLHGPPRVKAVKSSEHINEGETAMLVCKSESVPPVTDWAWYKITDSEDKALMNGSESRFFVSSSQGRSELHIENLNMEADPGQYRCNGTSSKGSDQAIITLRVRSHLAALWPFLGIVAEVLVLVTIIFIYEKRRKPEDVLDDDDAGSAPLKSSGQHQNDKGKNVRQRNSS
The conditions noted are these: cited from earlier work.

The target in data set [2] is T2, hMCT1-rCD147 fusion protein (Homo sapiens, UniProt P53985, D490E).
T2 sequence (P53985 with tags, fused parts or gaps D490E): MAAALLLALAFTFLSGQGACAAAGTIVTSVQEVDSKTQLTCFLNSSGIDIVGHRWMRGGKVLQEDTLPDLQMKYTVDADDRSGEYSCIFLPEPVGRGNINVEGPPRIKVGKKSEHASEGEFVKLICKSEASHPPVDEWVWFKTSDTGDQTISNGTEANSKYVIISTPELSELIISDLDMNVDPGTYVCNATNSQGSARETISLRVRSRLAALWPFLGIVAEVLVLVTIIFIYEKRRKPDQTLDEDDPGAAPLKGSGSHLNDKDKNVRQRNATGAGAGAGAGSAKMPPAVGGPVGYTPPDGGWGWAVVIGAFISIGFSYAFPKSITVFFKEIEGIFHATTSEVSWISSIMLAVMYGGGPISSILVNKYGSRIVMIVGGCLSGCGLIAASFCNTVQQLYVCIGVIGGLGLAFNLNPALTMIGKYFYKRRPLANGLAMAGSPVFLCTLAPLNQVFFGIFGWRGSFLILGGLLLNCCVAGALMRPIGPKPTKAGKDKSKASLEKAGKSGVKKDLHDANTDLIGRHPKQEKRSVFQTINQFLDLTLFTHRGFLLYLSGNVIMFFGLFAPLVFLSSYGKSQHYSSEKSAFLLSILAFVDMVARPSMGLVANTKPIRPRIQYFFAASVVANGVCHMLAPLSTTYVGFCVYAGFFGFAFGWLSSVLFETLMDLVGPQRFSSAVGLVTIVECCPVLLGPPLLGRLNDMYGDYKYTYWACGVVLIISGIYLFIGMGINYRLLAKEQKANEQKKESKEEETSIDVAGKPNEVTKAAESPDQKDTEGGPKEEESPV
The data set can be described thus: Competitive binding and uptake assay, inhibition of 14C-lactate uptake (FIG. 13). The format is cell-based. The arrangement: rCD147 (rat CD147/basigin) fusion partner; expressed in transfected cells. Particulars: cells expressing the fusion protein vs cells endogenously expressing hMCT1. The method, then: To determine whether a compound interacts with the MCT1 transporter, a competition-binding assay was developed. This assay measures how different concentrations of a test compound block the uptake of a radiolabeled substrate such as lactate. The half-maximal inhibitory concentration (IC50) for inhibition of transport of a substrate by a test compound is an indication of the affinity of the test compound for the MCT1 transporter. Competition binding studies were performed as follows. HEK-PEAK cells were plated in 96-well plates at 100,000 cells/well and incubated at 37° C. for 24 hours. Radiolabeled ^14C-lactic acid (˜50,000 cpm/well) was added to each well in the presence and absence of various concentrations of unlabeled lactic acid in duplicate or triplicate. Competition experiments were performed in an MES-based saline buffer adjusted to pH 6.8. Plates were incubated at room temperature for 2 minutes. Excess radiolabeled substrate was removed and cells were washed three times with a 96-well plate washer with cold assay buffer. Scintillation fluid was added to each well, the plates were sealed and counted in a 96-well plate-based scintillation counter. Data were graphed and analyzed using non-linear regression analysis with Prism Software (GraphPad, Inc., San Diego, Calif.). Competition binding in HEK-PEAK cells is illustrated in FIG. 4B.
To confirm the pharmacology of the hMCT1-rCD147 fusion proteins was the same as that of the unmodified version of hMCT1, the hMCT1-rCD147-expressing cells lines were tested in a competitive binding and uptake assay. Eight different MCT1 substrates were tested for their ability to inhibit the uptake of ^14C-lactate into isolated cell lines inducibly or constitutively expressing hMCT1-rCD147 fusion protein and into cells endogenously expressing hMCT1.

Data set [3] has as its target PgP (Homo sapiens, UniProt P08183). The data set can be described thus: Cellular transwell monolayer efflux assay, MDCK cells transfected with TREx-PgP (FIG. 8). How it is done: A third type of efflux transporter assay is the cellular transwell monolayer efflux assay. […] The cells form a polarized monolayer. The transwell dishes have apical and basolateral chambers that are separated by the filter membrane on which the polarized monolayer is situated. Assays are performed by placing a test compound in either the apical or basolateral chamber, followed by sampling the opposite chamber after a predetermined period of time such as 60-120 minutes and measuring the amount of the test compound. The test compound can be measured by methods such as radiolabel detection or LC-MS-MS analysis. Assays are performed in the presence and absence of an efflux transporter inhibitor or competitor. Efflux transporter inhibitors or competitors increase apical to basolateral transport and decrease basolateral to apical transport of compounds that are efflux transporter substrates. Apparent permeability (Papp) of test compounds is measured. […] Test compounds that generate ratios between 1.5 and 2.0 require additional testing to determine if they are efflux transporter substrates.
MDCK cells transfected with the tetracycline-inducible TREx-PgP expression vector were seeded on polycarbonate filter membranes in transwell dishes and grown for 3-5 days, yielding a polarized monolayer with tight junctions between cells. […] The left set of bars depicts apical to basolateral transport, while the right set of bars depicts basolateral to apical transport.

Data set [4] has as its target T1, MCT1. Briefly: Inducible uptake by LLCPK-TREx cell line containing pTREx-hMCT1 (FIG. 10). The format is cell-based. On the set-up: expressed in transfected cells; host or cells: LLCPK-TREx cells. The conditions noted are these: vs non-tet treated (un-induced) or parental LLCPK cells; pH 6.8, 2 minutes. How it is done:
FIG. 10 depicts the results of an uptake experiment showing inducible uptake of (A) ^14C-lactate and (B) thiopheneglyoxylic acid by the LLCPK-TREx cell line containing plasmid pTREx-hMCT1. Uptake of ^14C-lactate was measured as follows: radiolabeled ^14C-lactic acid (˜50,000 cpm/well) was added to each well in triplicate. Experiments were performed in an MES-based saline buffer adjusted to pH 6.8. Plates were incubated at room temperature for 2 minutes. Excess radiolabeled substrate was removed and cells were washed three times with a 96-well plate washer with cold assay buffer. Scintillation fluid was added to each well, the plates were sealed and counted in a 96-well plate-based scintillation counter. Uptake of thiopheneglyoxylic acid was measured similarly to ^14C-lactate, except cells were washed and compound extracted with a 50% ethanol solution. Levels of extracted thiopheneglyoxylate were measured using mass spectroscopy as described above. Negative control values were determined by measuring the uptake into non-tet treated (un-induced) or parental LLCPK (constitutive) cells.

Data set [5] addresses T2, hMCT1-rCD147 fusion protein. The data set can be described thus: Uptake of tritiated GHB, cells expressing hMCT1-rCD147 fusion protein (FIG. 14). The format is cell-based. On the set-up: rCD147 (rat CD147/basigin) fusion partner; expressed in transfected cells; host or cells: LLCPK-TREx cells (pTREx-hMCT1-rCD147 inducible, pMO-hMCT1-rCD147 constitutive). The conditions noted are these: inducibly or constitutively expressing cells, compared with uninduced or control cells. The method, then:
(§1) To determine whether […] (GHB) is a substrate for MCT1, an uptake assay was performed using tritiated […].

For data set [6], the target named is T1, MCT1. Briefly: Uptake of tritiated GHB, cells over expressing MCT1 protein (FIG. 14). The format is cell-based. On the set-up: expressed in transfected cells; host or cells: LLCPK-TREx cells. Particulars: compared with control cells. How it is done:
as §1

For data set [7], the target named is T1, MCT1. Briefly: 14C-lactate uptake in Xenopus oocytes injected with MCT1 cRNA (FIG. 2). The format is cell-based. On the set-up: expressed in transfected cells; host or cells: Xenopus oocytes injected with MCT1 cRNA. Particulars: oocytes expressing MCT1 vs oocytes expressing MCT4 or noninjected control oocytes.
Data set [8] concerns the target T1, MCT1. The data set can be described thus: 14C-lactate uptake assay in HEK-TREx cells transfected with tet-MCT1 inducible construct. The data set is classed as cell-based. The arrangement: expressed in transfected cells. The conditions noted are these: tet-induced vs non-induced. The method, then: Human MCT1 (hMCT1) is expressed at high levels in most mammalian cell lines. hMCT1 is a high capacity transporter, so low levels of hMCT1 expression may result in significant substrate transport. To control the level of hMCT expression, an inducible tet promoter-hMCT1 expression construct was prepared using the Gateway plasmid cloning system following manufacturers instructions (Invitrogen). The tet-MCT1 inducible construct was transfected into HEK-TREx cells using Fugene transfection following manufacturers instructions (Roche Biosciences). When the transfected cells were tested in an uptake assay, the amount of tetracycline-inducible MCT1 -mediated transport of ^14C-lactate was about 20% higher than the level of endogenous uptake seen in non-induced cells. The addition of an excess of unlabeled lactate competed with the uptake of ^14C-lactate.

The mark [9] stands for this setting: 2.5 nM 3H-vinblastine, in the presence of 250 μM verapamil.

Chain of PgP (P08183 whole entry): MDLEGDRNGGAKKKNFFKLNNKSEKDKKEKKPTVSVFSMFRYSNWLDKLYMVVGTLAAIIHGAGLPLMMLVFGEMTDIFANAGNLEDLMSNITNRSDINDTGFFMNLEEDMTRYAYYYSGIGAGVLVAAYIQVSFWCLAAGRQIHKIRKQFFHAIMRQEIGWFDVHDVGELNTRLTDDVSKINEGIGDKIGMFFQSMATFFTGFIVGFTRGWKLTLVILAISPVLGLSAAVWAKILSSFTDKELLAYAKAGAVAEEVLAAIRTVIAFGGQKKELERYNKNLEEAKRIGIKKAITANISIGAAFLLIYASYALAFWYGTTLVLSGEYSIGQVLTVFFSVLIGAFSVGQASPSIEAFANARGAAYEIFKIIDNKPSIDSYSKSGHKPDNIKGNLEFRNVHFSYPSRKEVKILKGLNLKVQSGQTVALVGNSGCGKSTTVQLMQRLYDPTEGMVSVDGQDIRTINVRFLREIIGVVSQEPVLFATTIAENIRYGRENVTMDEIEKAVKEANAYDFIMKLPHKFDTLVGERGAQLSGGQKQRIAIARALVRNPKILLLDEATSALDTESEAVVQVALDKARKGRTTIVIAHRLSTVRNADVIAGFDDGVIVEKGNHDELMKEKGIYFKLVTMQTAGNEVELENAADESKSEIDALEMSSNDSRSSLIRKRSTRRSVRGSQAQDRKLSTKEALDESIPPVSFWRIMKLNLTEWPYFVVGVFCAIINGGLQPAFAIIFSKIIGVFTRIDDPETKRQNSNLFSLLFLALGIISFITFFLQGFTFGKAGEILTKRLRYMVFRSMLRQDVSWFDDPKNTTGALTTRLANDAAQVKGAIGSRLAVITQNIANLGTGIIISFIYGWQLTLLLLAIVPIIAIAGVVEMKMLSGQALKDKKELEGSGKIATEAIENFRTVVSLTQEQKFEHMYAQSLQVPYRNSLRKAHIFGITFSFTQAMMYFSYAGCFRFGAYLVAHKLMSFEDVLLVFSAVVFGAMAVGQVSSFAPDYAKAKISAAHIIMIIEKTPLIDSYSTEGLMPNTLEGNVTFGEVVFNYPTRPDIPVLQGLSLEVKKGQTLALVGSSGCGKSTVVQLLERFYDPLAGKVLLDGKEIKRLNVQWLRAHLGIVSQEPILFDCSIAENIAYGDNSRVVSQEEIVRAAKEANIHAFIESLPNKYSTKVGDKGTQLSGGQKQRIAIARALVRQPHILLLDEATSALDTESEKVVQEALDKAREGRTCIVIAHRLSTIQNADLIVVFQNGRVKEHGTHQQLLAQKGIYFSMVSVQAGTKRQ

Regarding `O=C(CCc1ccc(O)cc1)c1c(O)cc(O)cc1O` [Phloretin], in data set [1], the “Reported Affinity for MCT1” value is on record as 0.2 mM.
As for `CC(O)C(=O)O` (stereo not drawn) [Lactic Acid, lactic acid], the “affinity for the MCT1-rCD147 fusion protein compared with hMCT1 alone” value (from here on “affinity … compared with hMCT1 alone”) in data set [2] is recorded as “higher affinity”. The “Reported Affinity for MCT1” value in data set [1] is recorded as 2 mM.
Take `O=C(O)Cc1ccccc1` [Compound 8, phenylacetic acid]: the “affinity … compared with hMCT1 alone” value in data set [2] was “higher affinity”.
Still for that read-out and setting: to `O=C(O)c1ccccc1` [Compound 5, benzoic acid] belongs “higher affinity”.
With `CC[C@]1(O)C[C@@H]2CN(CCc3c([nH]c4ccccc34)[C@@](C(=O)OC)(c3cc4c(cc3OC)N(C)[C@H]3[C@@](O)(C(=O)OC)[C@H](OC(C)=O)[C@]5(CC)C=CCN6CC[C@]43[C@@H]65)C2)C1` [^3H-vinblastine], in data set [3] (setting [9]), the “Apical to basolateral transport” value is reported as “strongly increased” and the “basolateral to apical transport” value was “strongly decreased”. The “efflux transporter substrate status” value in data set [3] (conclusion from transport with and without verapamil) is given as “substrate of PgP”.
For the molecule `O=C(O)C(=O)c1cccs1` [2-Thiophene glyoxylate], in data set [2], the “affinity … compared with hMCT1 alone” value is recorded as “higher affinity”. Moreover, in data set [4], the “MCT1 substrate uptake upon induction with tetracycline” value was “significant increase”. Moreover, in data set [1], the “Reported Affinity for MCT1” value is reported as 3 mM.
As to `CC1(C)S[C@@H]2[C@H](NC(=O)C(C(=O)Oc3ccc4c(c3)CCC4)c3ccccc3)C(=O)N2[C@H]1C(=O)O` (stereo partly drawn) [Carindicillin], the “Reported Affinity for MCT1” value in data set [1] was greater than 5 mM.
On to `CCC(O)C(=O)O` (stereo not drawn) [GHB, α-hydroxybutyrate], for which the “uptake of labeled GHB” value in data set [5] and in data set [6] was “increased uptake” each time.
In the case of `O=C(O)c1ccccc1O` [Salicylic Acid], the “Reported Affinity for MCT1” value in data set [1] was greater than 5 mM.
On to `CCCC(=O)O` [Butyric Acid], for which the “Reported Affinity for MCT1” value in data set [1] is 8 mM.
Take `CC(C)C[C@H](O)C(=O)O` [Compound 2, L-alpha-hydroxy-isocaproic acid]: the “affinity … compared with hMCT1 alone” value in data set [2] is recorded as “higher affinity”.
In the case of `O=C(O)c1cc(/N=N/c2ccc(S(=O)(=O)Nc3ccccn3)cc2)ccc1O` [Sulfasalazine], the “Reported Affinity for MCT1” value in data set [1] is reported as 0.15 mM.
As to ^14C-lactic acid [^14C-lactate], in data set [7], the 14C-lactate uptake entry is on record as “higher levels”. The “MCT1 substrate uptake upon induction with tetracycline” value in data set [4] was “significant increase”. In addition, the “tetracycline-inducible MCT1-mediated transport, higher than endogenous uptake in non-induced cells” value in data set [8] is listed as “about 20%”.
As for `O=C(O)c1cccnc1` [Nicotinic Acid, nicotinic acid], the “affinity … compared with hMCT1 alone” value in data set [2] is reported as “higher affinity”. The “Reported Affinity for MCT1” value in data set [1] was 4 mM.
Consider `CC(=O)C(=O)O` [Pyruvic Acid], for which, in data set [1], the “Reported Affinity for MCT1” value is 1 mM.
